The structures appear in SMILES notation. Calls of active or inactive are those of the source. No rule for the calls is given here.

In the assay the test system is Mycobacterium tuberculosis starved, CFU imaging. Nature of the assay: M. tuberculosis CFU reduction, CFU imaging, dry powder, dose response (AID 743486).
On to `Cn1c(NC(=O)c2ccccc2)nc2c3cnccc3ccc21`, for which the AC90 was less than 32 µM.

Turning to `Cn1c(NC(=O)c2ccccc2)nc2c3ncccc3ccc21`, the AC90 is > 64 µM (inactive).

As to `Cn1c(NC(=O)c2ccccc2)nc2c3nccnc3ccc21`, the AC90 was > 64 µM (inactive).

`Cn1c(NC(=O)c2ccccc2)nc2c3ccncc3ccc21`: the AC90 is less than 64 µM.

(Values after PubChem BioAssay AID743486 (Broad Institute, 2014).)
